Measured values published in patent US20240101570A1 (AMGEN INC., priority 2020, published 2024).

How the values were obtained:
[1] = test system: HCT116 MTAP null cells; test: HCT116 MTAP null cell proliferation / viability (CellTiter-Glo, 6 days); type: cell-based; details: HCT116-MTAP null, 144 h, HCT116 MTAP null cells, 6 days, CellTiter-Glo; read-out: HCT-116 MTAP null IC50
Procedure: (§1) HCT116 MTAP null and WT cells were seeded in 96-well tissue culture plates in RPMI 1640 media+10% fetal bovine serum. Plates were incubated overnight at 37° C. and 5% CO2. Cells were then treated with an 8- or 9-point serial dilution of compound, using a top concentration of 1, or 10 μM, 1:3 serial dilution steps and, a DMSO-only control. Cells were incubated in the presence of drug for 6 days. Effects on cell viability were measured with the CellTiter-Glo® Luminescent Cell Viability Assay (Promega) per manufacturer's recommendation. Assay plates were read on an EnVision™ Multilabel Reader using the Ultra-Sensitive luminescence module. IC50 values were calculated with GraphPad Prism v 5.01 using symmetrical sigmoidal dose-response least squares fit with Hill slope fixed to −1 and top constrain to 100% or GeneData Screener using a 4-parameter logistic model to fit dose response curves.
(§2) Alternatively, compounds could be assayed with a 384 well plate format:
(§3) Compounds were pre-spotted into 384 well plates with a 22-point serial dilution of compound, using a top concentration of 10 or 50 μM, 1:2 serial dilution steps and, a DMSO-only control. HCT116 MTAP null and WT cells were then seeded as above and after 6 days effects on cell viability were measured with the CellTiter-Glo® Luminescent Cell Viability Assay (Promega). Assay plates were read as above and IC50 values were calculated with GeneData Screener using a 4-parameter logistic model to fit dose response curves. The reported IC50 represents the value where the curve transits 50% of control.

[2] = test system: HCT116 WT cells; test: HCT116 WT cell proliferation / viability (CellTiter-Glo, 6 days); type: cell-based; details: Homo sapiens, HCT-116, 144 h, HCT116 WT cells, 6 days, CellTiter-Glo; read-out: HCT-116 WT IC50
Procedure: as §1, §2, §3

Structure (SMILES)	IC50 [1] [nM]	IC50 [2] [nM]
COCC(C)N(Cc1ccc(C(F)(F)F)nn1)C(=O)c1cc2c3c(c(N)nc2cc1F)COC3 (racemic) [Example 488, 4-amino-7-fluoro-N-((2R)-1-methoxy-2-propanyl)-N-((6-(trifluoromethyl)-3-pyridazinyl)methyl)-1,3-dihydrofuro[3,4-c]quinoline-8-carboxamide and 4-amino-7-fluoro-N-((2S)-1-methoxy-2-propanyl)-N-((6-(trifluoromethyl)-3-pyridazinyl)methyl)-1,3-dihydrofuro[3,4-c]quinoline-8-carboxamide]	49	696
CC(c1ncccn1)N(Cc1ccc(C#N)cn1)C(=O)c1ccc2nc(N)c3c(c2c1)COC3 (racemic) [Example 616, 4-amino-N-((5-cyano-2-pyridinyl)methyl)-N-((1R)-1-(2-pyrimidinyl)ethyl)-1,3-dihydrofuro[3,4-c]quinoline-8-carboxamide and 4-amino-N-((5-cyano-2-pyridinyl)methyl)-N-((1S)-1-(2-pyrimidinyl)ethyl)-1,3-dihydrofuro[3,4-c]quinoline-8-carboxamide]	18	419
CC(c1ncccn1)N(Cc1ccc(C(F)(F)F)cn1)C(=O)c1ccc2nc(N)c3c(cnn3C)c2c1 (racemic) [Example 618, 4-amino-3-methyl-N-((1R)-1-(2-pyrimidinyl)ethyl)-N-((5-(trifluoromethyl)-2-pyridinyl)methyl)-3H-pyrazolo[3,4-c]quinoline-8-carboxamide and 4-amino-3-methyl-N-((1S)-1-(2-pyrimidinyl)ethyl)-N-((5-(trifluoromethyl)-2-pyridinyl)methyl)-3H-pyrazolo[3,4-c]quinoline-8-carboxamide]	33	264
Cc1noc2c1c(N)nc1ccc(C(=O)N(Cc3ccc(C(F)(F)F)cn3)C(C)c3ncccn3)cc12 (racemic) [Example 619, 4-amino-3-methyl-N-((1R)-1-(2-pyrimidinyl)ethyl)-N-((5-(trifluoromethyl)-2-pyridinyl)methyl)[1,2]oxazolo[4,5-c]quinoline-8-carboxamide and 4-amino-3-methyl-N-((1S)-1-(2-pyrimidinyl)ethyl)-N-((5-(trifluoromethyl)-2-pyridinyl)methyl)[1,2]oxazolo[4,5-c]quinoline-8-carboxamide]	61	1060
COCC(C)N(Cc1ccc(C(F)(F)F)cn1)C(=O)c1ccc2nc(N)c3c(C)noc3c2c1 (racemic) [Example 634, 4-amino-N-((2R)-1-methoxy-2-propanyl)-3-methyl-N-((5-(trifluoromethyl)-2-pyridinyl)methyl)[1,2]oxazolo[4,5-c]quinoline-8-carboxamide and 4-amino-N-((2S)-1-methoxy-2-propanyl)-3-methyl-N-((5-(trifluoromethyl)-2-pyridinyl)methyl)[1,2]oxazolo[4,5-c]quinoline-8-carboxamide]	34	953
COCC(C1CC1)N(Cc1ccc(Br)nn1)C(=O)c1ccc2nc(N)c3sccc3c2c1 (racemic) [Example 639, 4-amino-N-((6-bromo-3-pyridazinyl)methyl)-N-((1R)-1-cyclopropyl-2-methoxyethyl)thieno[2,3-c]quinoline-8-carboxamide and 4-amino-N-((6-bromo-3-pyridazinyl)methyl)-N-((1S)-1-cyclopropyl-2-methoxyethyl)thieno[2,3-c]quinoline-8-carboxamide]	238	3150
CC(c1ncccn1)N(Cc1ccc(C(F)(F)F)cn1)C(=O)c1ccc2nc(N)c3c(c2c1)COC3 (racemic) [Example 640, 4-amino-N-((1R)-1-(2-pyrimidinyl)ethyl)-N-((5-(trifluoromethyl)-2-pyridinyl)methyl)-1,3-dihydrofuro[3,4-c]quinoline-8-carboxamide and 4-amino-N-((1S)-1-(2-pyrimidinyl)ethyl)-N-((5-(trifluoromethyl)-2-pyridinyl)methyl)-1,3-dihydrofuro[3,4-c]quinoline-8-carboxamide]	13	110
CC(CF)N(Cc1ccc(C#N)cn1)C(=O)c1cc2c3c(c(N)nc2cn1)COC3 (racemic) [Example 687, 4-amino-N-((5-cyano-2-pyridinyl)methyl)-N-((2R)-1-fluoro-2-propanyl)-1,3-dihydrofuro[3,4-c][1,7]naphthyridine-8-carboxamide and 4-amino-N-((5-cyano-2-pyridinyl)methyl)-N-((2S)-1-fluoro-2-propanyl)-1,3-dihydrofuro[3,4-c][1,7]naphthyridine-8-carboxamide]	> 10000	> 10000
CC(c1ccc(C(F)(F)F)cn1)N(C)C(=O)c1ccc2nc(N)c3c(c2c1)COC3 (racemic) [Example 697, 4-amino-N-methyl-N-((1R)-1-(5-(trifluoromethyl)-2-pyridinyl)ethyl)-1,3-dihydrofuro[3,4-c]quinoline-8-carboxamide and 4-amino-N-methyl-N-((1S)-1-(5-(trifluoromethyl)-2-pyridinyl)ethyl)-1,3-dihydrofuro[3,4-c]quinoline-8-carboxamide]	121	4430
CC(c1ccc(C(F)(F)F)cn1)N(C)C(=O)c1cnc2nc(N)c3c(c2c1)COC3 (racemic) [Example 700, 4-amino-N-methyl-N-((1R)-1-(5-(trifluoromethyl)-2-pyridinyl)ethyl)-1,3-dihydrofuro[3,4-c][1,8]naphthyridine-8-carboxamide and 4-amino-N-methyl-N-((1S)-1-(5-(trifluoromethyl)-2-pyridinyl)ethyl)-1,3-dihydrofuro[3,4-c][1,8]naphthyridine-8-carboxamide]	1100	> 10000
CCN(C(=O)c1cnc2nc(N)c3c(c2c1)COC3)C(C)c1ccc(C(F)(F)F)cn1 (racemic) [Example 705, 4-amino-N-ethyl-N-((1R)-1-(5-(trifluoromethyl)-2-pyridinyl)ethyl)-1,3-dihydrofuro[3,4-c][1,8]naphthyridine-8-carboxamide and 4-amino-N-ethyl-N-((1S)-1-(5-(trifluoromethyl)-2-pyridinyl)ethyl)-1,3-dihydrofuro[3,4-c][1,8]naphthyridine-8-carboxamide]	637	28500
CC(c1ccc(C(F)(F)F)cn1)N(C)C(=O)c1cc2c3c(c(N)nc2cn1)COC3 (racemic) [Example 709, 4-amino-N-methyl-N-((1R)-1-(5-(trifluoromethyl)-2-pyridinyl)ethyl)-1,3-dihydrofuro[3,4-c][1,7]naphthyridine-8-carboxamide and 4-amino-N-methyl-N-((1S)-1-(5-(trifluoromethyl)-2-pyridinyl)ethyl)-1,3-dihydrofuro[3,4-c][1,7]naphthyridine-8-carboxamide]	76	4250
CC(c1ccc(C(F)(F)F)cn1)N(C)C(=O)c1ccc2nc(N)c3c(cnn3C)c2c1 (racemic) [Example 716, 4-amino-N,3-dimethyl-N-((1R)-1-(5-(trifluoromethyl)-2-pyridinyl)ethyl)-3H-pyrazolo[3,4-c]quinoline-8-carboxamide and 4-amino-N,3-dimethyl-N-((1S)-1-(5-(trifluoromethyl)-2-pyridinyl)ethyl)-3H-pyrazolo[3,4-c]quinoline-8-carboxamide]	917	33300
